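Five concentrations, 48 hours, 96-well plates. GI50 = concentration required for 50% inhibition of growth. The concentration for full growth arrest is given as TGI.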 A value given as a limit tells only on which side of the number the result lay.

Experimental findings from PubChem BioAssay (NCI) are described below.

Among the test systems are 786-0 renal; EKVX NSCLC; HCT-15 colon; HL-60(TB) leukemia; NCI-H226 lung; NCI-H23 lung; OVCAR-3 ovarian; SF-295 CNS; SN12C renal; U251 CNS; UACC-62 melanoma; HS 578T breast; K-562 leukemia; MCF7 breast.
Holding throughout (test): NCI tumour cell line growth inhibition, 48 h

Consider `CCCc1cn2c(/C=N/N=C(N)N)c(-c3ccc([N+](=O)[O-])cc3)nc2s1`, for which the TGI in the experiment on 786-0 renal was found to be 1.97 µM; in the experiment on EKVX NSCLC, 3.62 µM; with HCT-15 colon, 2.3 µM; with HL-60(TB) leukemia, 2.52 µM; in the experiment on NCI-H226 lung, 3.33 µM; with NCI-H23 lung it was 2.82 µM. Further, the TGI in the experiment with OVCAR-3 ovarian is 0.377 µM; in the experiment on SF-295 CNS, 2.16 µM; with SN12C renal, 3.06 µM; in the experiment on U251 CNS it was 1.39 µM; in the experiment on UACC-62 melanoma, 3.35 µM.
As for `C=C1C(=O)O[C@H]2C1C[C@H](O)/C(C)=C/CC[C@@]1(C)O[C@H]21` (stereo partly drawn), the TGI with 786-0 renal was 32.8 µM; in the experiment on EKVX NSCLC it was 40.3 µM; in the experiment with HCT-15 colon, 31.1 µM; with HS 578T breast, 75.2 µM; in the experiment with K-562 leukemia, more than 100 µM; in the experiment on MCF7 breast it was 27.6 µM. In addition, the TGI in the experiment with NCI-H23 lung is 37.5 µM; in the experiment on SF-295 CNS, 82.5 µM; in the experiment on SN12C renal it was 33.8 µM; in the experiment with U251 CNS, more than 100 µM; with UACC-62 melanoma it was 22.9 µM.
For the compound `Cc1nc2c(n1Cc1ccc(F)cc1)C(=O)c1ccccc1C2=O`, the TGI with 786-0 renal was more than 100 µM; in the experiment on EKVX NSCLC, more than 100 µM; in the experiment on HCT-15 colon, more than 100 µM; with HL-60(TB) leukemia it was 29.7 µM; with K-562 leukemia, 86.9 µM; in the experiment with NCI-H226 lung it was more than 100 µM. For the same compound, the TGI is more than 100 µM in the experiment with NCI-H23 lung; 48.6 µM with OVCAR-3 ovarian; more than 100 µM in the experiment on SF-295 CNS; more than 100 µM with SN12C renal; more than 100 µM in the experiment with U251 CNS; 32.3 µM in the experiment on UACC-62 melanoma.
Take `COc1ccccc1NC(=O)C(=O)C(c1cnc2ccc([N+](=O)[O-])cc2n1)[N+](=O)[O-]` (stereo not drawn): the TGI in the experiment with 786-0 renal, with EKVX NSCLC, in the experiment with HCT-15 colon, with HL-60(TB) leukemia, in the experiment on K-562 leukemia and in the experiment on NCI-H226 lung was more than 100 µM each time. For the same compound, the TGI in the experiment with NCI-H23 lung, in the experiment with SF-295 CNS, in the experiment on SN12C renal, with U251 CNS and in the experiment with UACC-62 melanoma was more than 100 µM each time.
For the compound `CCCCCCCC(=O)OC(COC(=O)Cc1ccccc1)COC(=O)C(C)(C)C` (stereo not drawn), the TGI with 786-0 renal, in the experiment with HCT-15 colon, in the experiment with HL-60(TB) leukemia, with K-562 leukemia, with NCI-H226 lung and in the experiment with NCI-H23 lung was more than 100 µM in each case. In addition, the TGI in the experiment with OVCAR-3 ovarian, in the experiment on SF-295 CNS, in the experiment on SN12C renal, with U251 CNS and with UACC-62 melanoma was more than 100 µM each time.
Turning to `N#C/C(=C\c1ccccc1F)C(=O)c1ccccc1`, the TGI in the experiment with 786-0 renal, in the experiment on EKVX NSCLC, in the experiment with HCT-15 colon, with HL-60(TB) leukemia, with K-562 leukemia and in the experiment with NCI-H23 lung was more than 100 µM in each case. In addition, the TGI in the experiment on OVCAR-3 ovarian, with SF-295 CNS, in the experiment on SN12C renal, with U251 CNS and with UACC-62 melanoma was more than 100 µM in each case.
Take `[O-][N+]1=C(c2ccccc2)/C(=C2/C(c3ccccc3)=[N+]([O-])c3ccccc32)Cc2ccccc21`: the TGI in the experiment with 786-0 renal is 34.9 µM; with EKVX NSCLC, 48.5 µM; with HCT-15 colon it was 36.7 µM; in the experiment with HL-60(TB) leukemia, more than 100 µM; with K-562 leukemia, 58.1 µM; with MCF7 breast it was more than 100 µM. In addition, the TGI in the experiment with NCI-H226 lung is 42.2 µM; in the experiment with NCI-H23 lung, 34.7 µM; in the experiment with OVCAR-3 ovarian, 38.1 µM; with SF-295 CNS it was 42.9 µM; with SN12C renal, 32.4 µM; in the experiment on U251 CNS it was 38.7 µM. This compound also yielded a TGI in the experiment with UACC-62 melanoma of 28.7 µM.
As for `COc1cc(Cn2c3ccccc3c3cc(C)cc(OC)c32)cc2c1[nH]c1ccccc12`, the TGI in the experiment with 786-0 renal, with HCT-15 colon, with HL-60(TB) leukemia, in the experiment on K-562 leukemia, with NCI-H226 lung and in the experiment on OVCAR-3 ovarian was more than 25 µM in each case. The TGI in the experiment on SN12C renal, in the experiment with U251 CNS and with UACC-62 melanoma was more than 25 µM in each case. Further, the GI50 was 16.8 µM in the experiment with HCT-15 colon; 12.3 µM with HL-60(TB) leukemia; 9.7 µM with K-562 leukemia; 17 µM in the experiment with NCI-H226 lung; 15 µM in the experiment on UACC-62 melanoma.
For `Cc1cc(N(CCC#N)CCC#N)ccc1/C=C(\N=[N+]=[N-])C(=O)NC(=O)COc1ccccc1`, the TGI in the experiment on 786-0 renal, in the experiment on EKVX NSCLC, with HCT-15 colon, in the experiment with HL-60(TB) leukemia, in the experiment with K-562 leukemia and in the experiment on NCI-H226 lung was more than 100 µM throughout. Further, the TGI with NCI-H23 lung, in the experiment on OVCAR-3 ovarian, in the experiment on SF-295 CNS, in the experiment on SN12C renal, in the experiment with U251 CNS and with UACC-62 melanoma was more than 100 µM in each case.
For the compound `O=C1CS(=O)c2ccccc2N1` (stereo not drawn), the TGI in the experiment with 786-0 renal, with EKVX NSCLC, with HCT-15 colon, in the experiment on HL-60(TB) leukemia, in the experiment on K-562 leukemia and in the experiment on NCI-H226 lung was more than 100 µM throughout. Besides, the TGI in the experiment on NCI-H23 lung, in the experiment on OVCAR-3 ovarian, in the experiment on SF-295 CNS, in the experiment on SN12C renal, in the experiment on U251 CNS and in the experiment on UACC-62 melanoma was more than 100 µM each time.
Turning to `CN(CCO)c1nc(=O)c2c(n1C1OC(CO)C(O)C(O)C1O)CCCC2` (stereo not drawn), the TGI with 786-0 renal, in the experiment with EKVX NSCLC, in the experiment on HCT-15 colon, in the experiment on HL-60(TB) leukemia, in the experiment with K-562 leukemia and with NCI-H226 lung was more than 100 µM in each case. Further, the TGI in the experiment with NCI-H23 lung, with OVCAR-3 ovarian, in the experiment on SF-295 CNS, with SN12C renal, with U251 CNS and in the experiment with UACC-62 melanoma was more than 100 µM each time.
Regarding `CCOC(=O)C1=C(C)C2C3C(=O)OC(=O)C3C1(C)C1C(=O)OC(=O)C21` (stereo not drawn), the TGI in the experiment with 786-0 renal, in the experiment on EKVX NSCLC, in the experiment with HCT-15 colon, in the experiment with HL-60(TB) leukemia, in the experiment on K-562 leukemia and in the experiment on NCI-H226 lung was more than 100 µM in each case. The TGI with NCI-H23 lung, in the experiment with OVCAR-3 ovarian, with SF-295 CNS, in the experiment on SN12C renal, in the experiment with U251 CNS and in the experiment on UACC-62 melanoma was more than 100 µM throughout.
For `CC(C)OP(=O)(OC(C)C)/C(=N/Nc1ccc([N+](=O)[O-])cc1)NNC(=O)c1ccccc1`, the TGI with 786-0 renal is more than 100 µM; in the experiment with EKVX NSCLC it was more than 100 µM; in the experiment with HCT-15 colon, more than 100 µM; in the experiment on HL-60(TB) leukemia, 68.9 µM; in the experiment with K-562 leukemia, more than 100 µM; with NCI-H226 lung it was more than 100 µM. Also, the TGI was 79.3 µM with NCI-H23 lung; more than 100 µM in the experiment with OVCAR-3 ovarian; more than 100 µM in the experiment on SN12C renal; 76.7 µM with U251 CNS; 36.5 µM with UACC-62 melanoma.
Turning to `N#CCCN(c1ccc(C=Nc2ccc(C(=O)O)cc2)cc1)S(=O)(=O)c1ccccc1`, the TGI in the experiment on 786-0 renal, in the experiment on EKVX NSCLC, with HCT-15 colon, in the experiment on HL-60(TB) leukemia, in the experiment with K-562 leukemia and with NCI-H226 lung was more than 100 µM throughout. For the same compound, the TGI in the experiment on NCI-H23 lung, with OVCAR-3 ovarian, with SF-295 CNS, in the experiment on SN12C renal, in the experiment on U251 CNS and in the experiment on UACC-62 melanoma was more than 100 µM each time.
Consider `CCCC1(N2C(=O)c3ccc4c5c(ccc(c35)C2=O)N(C2(CCC)CCCCC2)C4=O)CCCCC1`, for which the TGI in the experiment with 786-0 renal, with HCT-15 colon, with K-562 leukemia, in the experiment on MCF7 breast, in the experiment with NCI-H23 lung and in the experiment with OVCAR-3 ovarian was more than 100 µM each time. In addition, the TGI in the experiment on SF-295 CNS, in the experiment on SN12C renal, in the experiment with U251 CNS and with UACC-62 melanoma was more than 100 µM in each case.
For `COc1cc2c(c(OC)c1)C(=O)C(=O)C(CC1(C)OCCCO1)=C2`, the TGI in the experiment on 786-0 renal turned out to be 22 µM; in the experiment with EKVX NSCLC it was 29.6 µM; in the experiment on HCT-15 colon, 17 µM; with HL-60(TB) leukemia it was 4.28 µM; with K-562 leukemia it was 6.7 µM; in the experiment with NCI-H226 lung, 19.6 µM. Besides, the TGI stood at 24.3 µM with NCI-H23 lung; 10.5 µM with OVCAR-3 ovarian; 27.1 µM in the experiment on SF-295 CNS; 26.8 µM in the experiment on SN12C renal; 28.7 µM in the experiment with U251 CNS; 20.2 µM in the experiment with UACC-62 melanoma.
In the case of `CCOC(=O)C(C(=O)OCC)S(C)(=O)=O`, the TGI with 786-0 renal, with EKVX NSCLC, with HL-60(TB) leukemia, in the experiment with K-562 leukemia, with NCI-H226 lung and in the experiment with NCI-H23 lung was more than 100 µM throughout. The TGI in the experiment with OVCAR-3 ovarian, with SF-295 CNS, in the experiment on SN12C renal, in the experiment on U251 CNS and with UACC-62 melanoma was more than 100 µM throughout.
